In PMC9416163, “Antiproliferative Copper(II) Complexes Bearing Mixed Chelating Ligands: Structural Characterization, ROS Scavenging, In Silico Studies, and Anti-Melanoma Activity” (Pharmaceutics, 2022):

Key:
[1] = tested on: Human fibroblast cells (BJ); experiment: MTT cell viability assay on BJ cells; type: cell-based; conditions: for IC50: MTT
Experimental: (§1) Human fibroblast cells (BJ-ATCC CRL-2522, USA) were grown in minimal essential medium (MEM) supplemented with 2 mM L-Glutamine, 10% fetal calf serum (FCS), 100 units/mL of penicillin, and 100 µg/mL of streptomycin at 37 °C in a humidified incubator under an atmosphere containing 5% CO2. Mouse melanoma cells (B16-ATCC CRL-6475, USA) were grown in DMEM (Dulbecco’s Modified Eagle Medium) supplemented with reagents like MEM. All cell cultivation media and reagents were purchased from Biochrom AG (Berlin, Germany) and Sigma-Aldrich (Darmstadt, Germany).
(§2) Cell viability was evaluated using the MTT assay (3-(4,5-dimethylthiazol-2-yl)-2,5-diphenyltetrazolium bromide) as previously described. Briefly, BJ and B16 cells were seeded in 96-well plates at densities of 10,000 cells/well and 7000 cells/well and further cultured in the medium for 24 h. The next day, the investigated compounds were added at a concentration of 1 to 25 μM for 24 and 48 h. The cells cultivated in medium without the studied samples served as negative controls. After incubation for the desired times, the medium was replaced with MTT solution (1 mg/mL) and incubated for an additional 4 h at 37 °C. Finally, the medium was collected, and DMSO was used to dissolve the insoluble formazan product. A Mithras 940 (Berthold, Bad Wildbad, Germany) plate reader was used to measure the absorbance of the samples at 570 nm. The data were corrected for background, and the percentage of viable cells was obtained using the following equation:Cell viability = [(A570 of treated cells)/(A570 of untreated cells)] × 100 (%)
(§3) Half-maximal inhibitory concentration (IC50) was determined by fitting the data with a sigmoidal logistic function using Origin 8.1 (Microcal Inc., Northampton, MA, USA) software.

[2] = tested on: B16 murine melanoma cells; experiment: MTT cell viability assay on B16 cells; type: cell-based, mouse; conditions: for IC50: MTT
Experimental: as §1, §2, §3

B16 cells = experiment: Cell cycle analysis (PI, flow cytometry); type: cell-based, mouse; conditions: 24 h; for cells in the G2/M phase: untreated 15.53%; for cells in the S phase: untreated 25.65%; for cells in the G0/G1 phase: untreated 49.70%; for changes in the cell cycle: 1 μM or 5 μM
Experimental: Twenty-four hours after treatment of B16 cells with concentrations of 1 and 5 μM of each compound, cells were harvested and fixed with pre-chilled 70% ethanol solution at −20 °C. Cells were incubated with 0.2 mg/mL RNAse and 20 μg/mL propidium iodide (PI) in a 0.1% Triton TX-100 solution, in the dark, for 30 min at 37 °C. Cell cycle distribution was analyzed using a Beckman Coulter Cell Lab Quanta SC Flow Cytometer (Indianapolis, IN, USA), and the data were analyzed using the Quanta Analysis software.

[3] = EPR, interaction with superoxide (KO2); conditions: 100 µM in DMSO, KO2 added
Experimental: The C, N, and H chemical analyses were carried out with a EuroEA elemental analyzer. Fourier Transform Infrared spectroscopy (FTIR) spectra were recorded with a Tensor 37 spectrometer (Bruker, Billerica, MA, USA) in the 400–4000 cm^−1 range. A Jasco V 670 spectrophotometer (Jasco, Easton, MD, USA) with Spectralon as a standard in the 200–1500 nm range was used to record the UV-Vis spectra in solid-state. A continuous wave X-Band Bruker EMX plus EPR spectrometer (Bruker, Karlsruhe, Germany) equipped with a Bruker X-SHQ 4119HS-W1 X-Band resonator was used for the X-band EPR measurements. The parameters for the X-Band measurements were set as follows: microwave frequency 9.879 GHz, microwave power 6.325 mW, modulation amplitude 0.2 mT, conversion time 74.17 ms, and time constant 40.96 ms at 35 scans. All measurements were carried out at room temperature. Simultaneous Thermogravimetric/Differential Scanning Calorimetry–Mass spectroscopy (TG-DSC/MS) measurements were performed on a TGA/DSC1 Thermal Analyser (Mettler Toledo, Schwarzenbach, Switzerland), coupled to a Vacuum Thermostar Mass Spectrometer (Pfeiffer, Asslar, Germany) under the following conditions: isothermal conditioning at 25 °C, temperature range from 25 to 800 °C, heating rate 5 °C/min, dynamic air atmosphere with a flow rate of 100 mL/min, sample masses of 2–4 mg, 150 μL platinum crucible; empty crucible served as reference. The blank curve was subtracted. Evolved gasses were introduced into the Mass Spectrometer via a 75 cm heated capillary.
In contrast, all compounds in the presence of HO⋅ radicals show the trapping ability of these radicals, as indicated by the additional EPR signals in all four EPR spectra.

MKN-45 cells = tested on: MKN-45 cells; set-up: method as in doi:10.1080/00958972.2018.1447668; conditions: 48 h of incubation; cited from earlier work

## CC(=O)C=C([O-])c1ccccc1.[Cu+2].[O-][Cl+3]([O-])([O-])[O-].c1cnc2c(c1)ccc1cccnc12 [Compound (1), [Cu(phen)(bzac)(ClO4)]]
[1]; 10 μM
  cell viability: 20%
[1]; 24 h
  IC50: 3.95 µM
[1]; 48 h
  IC50: 2.8 µM
[1]; up to 25 μM
  cell viability: about 15%
[2]; 10 μM
  cell viability: 10%
[2]; 24 h
  IC50: 3.48 µM
[2]; 48 h
  IC50: 2.2 µM
[2]; up to 25 μM
  cell viability: about 5%
B16 cells; 5 μM, untreated 9.11%
  cells in the sub-G1 phase: 18.43%
B16 cells; 5 μM
  cells in the G2/M phase: 5.59%
  cells in the S phase: 15.82%
  cells in the G0/G1 phase: 60.14%
[3]
  response to O2⋅^− radicals (EPR): exhibit a scavenging response
MKN-45 cells
  cytotoxicity compared with 5-fluorouracil: significantly more cytotoxic against MKN-45 cells than 5-fluorouracil

## CC(=O)C=C([O-])c1ccccc1.O.O=[N+]([O-])[O-].[Cu+2].c1cnc2c(c1)ccc1cccnc12 [Compound (2), [Cu(phen)(bzac)(NO3)]⋅H2O]
[1]; 10 μM
  cell viability: 20%
[1]; 24 h
  IC50: 4.85 µM
[1]; 48 h
  IC50: 2.48 µM
[1]; up to 25 μM
  cell viability: about 15%
[2]; 10 μM
  cell viability: 10%
[2]; 24 h
  IC50: 2.65 µM
[2]; 48 h
  IC50: 1.44 µM
[2]; up to 25 μM
  cell viability: about 5%
B16 cells; 5 μM
  cells in the G2/M phase: 10.78%
  cells in the S phase: 13.81%
  cells in the G0/G1 phase: 54.90%
[3]
  response to O2⋅^− radicals (EPR): exhibit a scavenging response

## CC(=O)C=C([O-])c1ccccc1.[Cu+2].[O-][Cl+3]([O-])([O-])[O-].c1ccc(-c2ccccn2)nc1 [Compound (3), [Cu(bpy)(bzac)]ClO4]
[1]; 24 h
  IC50: 11 µM
[1]; 48 h
  IC50: 10.4 µM
[2]; 24 h
  IC50: 8.28 µM
[2]; 48 h
  IC50: 4.65 µM
B16 cells
  changes in the cell cycle: no changes in the cell cycle were observed
[3]
  response to O2⋅^− radicals (EPR): exhibit a scavenging response
MKN-45 cells
  cytotoxicity compared with 5-fluorouracil: significantly more cytotoxic against MKN-45 cells than 5-fluorouracil

## CC(=O)C=C([O-])c1ccccc1.O=[N+]([O-])[O-].[Cu+2].c1ccc(-c2ccccn2)nc1 [Compound (4), [Cu(bpy)(bzac)(NO3)]]
[1]; 24 h
  IC50: 11.7 µM
[1]; 48 h
  IC50: 10.3 µM
[2]; 24 h
  IC50: 6.43 µM
[2]; 48 h
  IC50: 4.7 µM
B16 cells
  changes in the cell cycle: no changes in the cell cycle were observed
[3]
  response to O2⋅^− radicals (EPR): neither scavenging nor a trapping ability toward superoxide radicals
